{"source": "patent US7683052B2", "about": "“Crystalline polymorph of bazedoxifene acetate” (Wyeth, priority 2004, dated 2010)", "origin": "cited, not measured here", "key": {"uterine response": {"system": "uterine response", "settings": "preclinical models of uterine stimulation"}, "ovariectomized rat": {"system": "ovariectomized rat", "settings": "ovariectomized rat model of osteopenia"}, "[1]": {"system": "MCF-7 cell line (human breast cancer cell line)", "settings": "MCF-7 human breast cancer cell line"}}}
{"smiles": "Cc1c(-c2ccc(O)cc2)n(Cc2ccc(OCCN3CCCCCC3)cc2)c2ccc(O)cc12", "note": "[bazedoxifene acetate, 1-[4-(2-azepan-1-yl-ethoxy)-benzyl]-2-(4-hydroxy-phenyl)-3-methyl-1H-indol-5-ol acetic acid]", "values": [{"measurement": "Stimulation of uterine response", "setting": "uterine response", "value": "little or no stimulation of uterine response"}, {"measurement": "Effect on bone loss and cholesterol", "setting": "ovariectomized rat", "value": "estrogen agonist-like effect in preventing bone loss and reducing cholesterol"}, {"measurement": "Estrogen agonist/antagonist behaviour in MCF-7 cells", "setting": "[1]", "value": "behaves as an estrogen antagonist"}]}
